Measured values as given in USPP13279P2, “Mint plant named ‘Saksham’” (Council of Scientific and Industrial Research, priority 2000, dated 2002).

System: in vitro regenerates (shoots) of Mentha arvensis ‘Himalaya’ somaclones
Assay: Menthol tolerance/toxicity test of in vitro regenerates in MS based medium containing menthol
Assay type: cell-based
Excerpt: The applicants used the plant ‘Himalaya’ (U.S. Plant Pat. No. 10,935), an elite mint genotype for large scale screening of in vitro raised clones (Khanuja S P S, Shasany A K, Dhawan S, Sushil Kumar, 1998, Rapid procedure for isolating somaclones of altered genotypes in Mentha arvensis. J medicinal and Aromatic Plant Sciences 20:359-361) to select clones tolerant to high menthol concentration in the medium (An efficient in vitro selection procedure for large scale screening of mint clones to isolate high menthol genotypes. Khanuja et al, Procedure patent pending, 1999).
While testing the tolerance of in vitro regenerates in presence of menthol in the MS based medium (Murashige T and Skoog F, 1962, A revised medium for rapid growth and bioassay with tobacco tissue cultures; Physiol. Planta. 15 473-497), the initial toxicity symptoms were first observed at the menthol concentration of 40 μg ml^−1 menthol after 7 days. […] Here it was immediate chlorophyll loss and irreversible wilting of the shoots, non-rescuable even by culturing these regenerates in normal medium without menthol. Lowest survival was detected at a concentration of 70 μg ml^−1, where only 1% shoots could survive. […] Ultimately 36, clones were selected for tolerance at 70 μg ml^−1 menthol by screening about 2950 clones. These were transferred to field for evaluation in a plant test area at Lucknow, India. […]

SMILES: CC1CCC(C(C)C)C(O)C1 (centres unmarked) [menthol]
- menthol concentration tolerated in the culture medium (clone GRB-30 (‘Saksham’), retesting in vitro): 80 µg/mL
- shoots that could survive (lowest survival) (menthol 70 μg ml^−1 in the medium): 1%
